In patent US20240228481A1, “NOVEL SULFONAMIDE SERIES OF QR2 INHIBITORS TO TACKLE OXIDATIVE STRESS AND COGNITIVE DECLINE” (CARMEL HAIFA UNIVERSITY ECONOMIC CORPORATION LTD., priority 2021, published 2024):

Tests used:
Type in all cases: biochemical
QR2 [1] = molecular target: T1, QR2 (Homo sapiens, UniProt P16083); assay: QR2 enzymatic activity assay (menadione/BNAH), fluorescence readout; parameters: purchased Sigma-Aldrich
T1 sequence (P16083 1-231): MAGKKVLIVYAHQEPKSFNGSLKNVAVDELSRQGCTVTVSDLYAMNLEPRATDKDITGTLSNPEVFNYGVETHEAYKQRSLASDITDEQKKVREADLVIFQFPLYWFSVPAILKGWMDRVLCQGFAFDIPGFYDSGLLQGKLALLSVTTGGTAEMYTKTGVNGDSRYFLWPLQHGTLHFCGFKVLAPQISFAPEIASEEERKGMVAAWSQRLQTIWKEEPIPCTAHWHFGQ
Protocol: (§1) The enzymatic activity of QR2 (10 nM) was measured using menadione (both Sigma-Aldrich) as substrate and dihydrobenzylnicotamide (BNAH; Tocris) as co-substrate (Boutin et al., 2005). The reaction was performed in 50 mM Tris HCl, 150 mM NaCl 0.01% Tween-20 pH=8.5 (Sigma-Aldrich) at room temperature. Briefly, 3 μL of menadione alone (200 μM) or a mixture of menadione and QR2 (200 μM of menadione and 10 nM of QR2) were dispensed in 1536-well black Nunc plates (Thermo-Fisher) using a Multidrop™ Combi Reagent Dispenser (Thermo-Fisher) and pre-incubated with compounds for 10 min. BNAH (200 μM) was then added (3 μL) to the reaction using a BioNex Solutions BNX 1536 plate washer and the plates were incubated for another 10 min. […] The initial HTS was done with approximately 200,000 compounds at a single concentration of 5 μM. The chemical libraries used were Selleck Chemicals Bioactives, the Drug-like set from Enamine, HitFinder collection from Maybridge, Spectrum Collection from Microsource, Lopac from Sigma-Aldrich and the diversity sets from ChemDiv and ChemBridge. Initial “hit” compounds were defined as causing >30% reduction of enzyme activity. […] “Hit” compounds resulting from both the fluorescence and absorbance assay were tested in a dose-response, and median inhibition concentration (IC50) values were determined. In parallel, the same dose response was used in a selectivity assay where QR2 enzyme was replaced by QR1 (also known as—NQO1, 10 nM; Sigma-Aldrich).
(§2) In order to establish a varied, flexible and chemically amenable starting point from which to develop such inhibitors, the inventors ran a standardized QR2 assay (see methods) against ˜200,000 compounds, from a varied assortment of chemical libraries.

QR1 (NQO1) [2] = molecular target: T2, QR1 (NQO1) (Homo sapiens, UniProt P15559); assay: Selectivity assay with QR1 in place of QR2, absorbance readout
T2 construct: purchased Sigma-Aldrich
Protocol: (§3) The enzymatic activity of QR2 (10 nM) was measured using menadione (both Sigma-Aldrich) as substrate and dihydrobenzylnicotamide (BNAH; Tocris) as co-substrate (Boutin et al., 2005). The reaction was performed in 50 mM Tris HCl, 150 mM NaCl 0.01% Tween-20 pH=8.5 (Sigma-Aldrich) at room temperature. Briefly, 3 μL of menadione alone (200 μM) or a mixture of menadione and QR2 (200 μM of menadione and 10 nM of QR2) were dispensed in 1536-well black Nunc plates (Thermo-Fisher) using a Multidrop™ Combi Reagent Dispenser (Thermo-Fisher) and pre-incubated with compounds for 10 min. BNAH (200 μM) was then added (3 μL) to the reaction using a BioNex Solutions BNX 1536 plate washer and the plates were incubated for another 10 min. […] The initial HTS was done with approximately 200,000 compounds at a single concentration of 5 μM. The chemical libraries used were Selleck Chemicals Bioactives, the Drug-like set from Enamine, HitFinder collection from Maybridge, Spectrum Collection from Microsource, Lopac from Sigma-Aldrich and the diversity sets from ChemDiv and ChemBridge. Initial “hit” compounds were defined as causing >30% reduction of enzyme activity. Compounds suspected to be fluorescent were re-assayed in an absorbance assay at 350 nm using the same reaction but in a higher volume (100 μL), in a transparent plate (Greiner Bio-One). “Hit” compounds resulting from both the fluorescence and absorbance assay were tested in a dose-response, and median inhibition concentration (IC50) values were determined. In parallel, the same dose response was used in a selectivity assay where QR2 enzyme was replaced by QR1 (also known as—NQO1, 10 nM; Sigma-Aldrich).
(§4) In order to establish a varied, flexible and chemically amenable starting point from which to develop such inhibitors, the inventors ran a standardized QR2 assay (see methods) against ˜200,000 compounds, from a varied assortment of chemical libraries. […] Compounds that replicated the initial hit result were then assayed similarly, against NQO1, to evaluate compound specificity (FIG. 1B). From the HTS, a series of compounds containing a sulfonamide central linker, with an amine on one side and a heterocycle on the other, were identified and selected for SAR development (FIG. 1C).

QR2 [3] = molecular target: T1, QR2; assay: QR2 enzymatic activity assay (menadione/BNAH), absorbance readout at 350 nm; parameters: purchased Sigma-Aldrich
Protocol: as §1, §2

QR1 (NQO1) [4] = molecular target: T2, QR1 (NQO1); assay: Selectivity assay with QR1 in place of QR2, fluorescence readout
Protocol: as §3, §4

T2 sequence (P15559 whole entry): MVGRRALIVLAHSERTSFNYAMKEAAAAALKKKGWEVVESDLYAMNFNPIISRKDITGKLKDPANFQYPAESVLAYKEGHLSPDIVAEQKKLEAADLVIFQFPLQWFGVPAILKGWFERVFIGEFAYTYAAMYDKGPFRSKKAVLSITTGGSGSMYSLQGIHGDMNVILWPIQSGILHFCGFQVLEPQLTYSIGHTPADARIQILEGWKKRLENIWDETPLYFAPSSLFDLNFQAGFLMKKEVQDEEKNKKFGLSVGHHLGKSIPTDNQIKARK

SMILES | IC50 (QR2 [1]) [µM] | IC50 (QR1 (NQO1) [2]) [µM] | IC50 (QR2 [3]) [µM] | IC50 (QR1 (NQO1) [4]) [µM]
Cc1cc(-c2ccc(C)c(S(=O)(=O)N3CCN(C(=O)c4ccco4)CC3)c2)n[nH]1 [PCM-0213791] | 0.26 | > 9.99 | 0.08 | > 9.99
Cc1cc(-c2ccc(C)c(S(=O)(=O)N3CCCCCC3)c2)[nH]n1 [PCM-0213795] | 0.64 | > 9.99 | 0.28 | > 9.99
COc1ccc(O)cc1NC(=O)c1oc2ccc(S(=O)(=O)N3CCCC3)cc2c1C [PCM-0193675] | > 9.9 | > 9.99 | > 9.99 | > 9.9
O=c1n(Cc2ccc(Cl)cc2)nc2ccc(S(=O)(=O)N3CCCCC3)cn12 [PCM-0140113] | > 9.9 | > 9.99 | > 9.99 | > 9.9
Cc1nc(-c2ccc(C)c(S(=O)(=O)NCCCN3CCCC3=O)c2)cs1 [PCM-0213793] | 5.45 | > 9.99 | 2.91 | > 9.99
Cc1cc(-c2ccc(C)c(S(=O)(=O)NCC3CCN(Cc4ccco4)CC3)c2)on1 [PCM-0136246] | 3.98 | > 9.99 | 2.56 | > 9.9
N#Cc1nc(-c2ccc(S(=O)(=O)N3CCCC3)cc2)oc1NCCCN1CCOCC1 [PCM-0172736] | < 0.83 | > 9.99 | > 9.99 | < 0.83
O=S(=O)(Nc1cccc(-c2cn3ccsc3n2)c1)c1ccc2c(c1)OCCO2 [PCM-0190999] | 5.62 | < 0.75 | 4.03 | < 0.83
CNC(=O)N1CCc2cc(S(=O)(=O)N3CCc4ccccc43)ccc21 [PCM-0181527] | > 9.9 | > 9.99 | > 9.99 | > 9.9
CCCn1cc(C2CCN(S(=O)(=O)c3ccc(C(C)(C)C)cc3)CC2)c2cccnc21 [PCM-0105813] | > 9.9 | > 9.99 | > 9.99 | > 9.9
CCOC(=O)c1cc(-c2ccc(OC)c(S(=O)(=O)N3CCCc4ccccc43)c2)on1 [PCM-0120247] | > 9.9 | > 9.99 | > 9.99 | > 9.9
Cc1nc(-c2ccc(C)c(S(=O)(=O)N3CCCC3)c2)cs1 [PCM-0213807] | 1.55 | > 9.99 | 0.37 | > 9.99
COc1ccc(S(=O)(=O)N2CCC(NC(=O)N3CCCC3)CC2)cc1 [PCM-0154188] | 2.06 | > 9.99 | 3.83 | > 9.9
COc1cc(NS(C)(=O)=O)ccc1Cc1c2ccccc2nc2ccccc12 [PCM-0090313] | > 9.8 |  |  | > 9.8
CCOC(=O)c1c(S(=O)(=O)N2CCN(Cc3ccccc3)CC2)c(C)n(C)c1C [PCM-0119478] | > 9.9 | > 9.99 | > 9.99 | > 9.9
COCC1CN(S(=O)(=O)Cc2ccccc2)CC12CCNCC2 (centres unmarked) [PCM-0109036] | > 9.9 | > 9.99 | > 9.99 | > 9.9
Cc1cc(-c2ccc(C)c(S(=O)(=O)N(C)C)c2)n[nH]1 [PCM-0213802] | 0.39 | > 9.99 | 0.16 | > 9.99
CCOC(=O)c1c(S(=O)(=O)N(CCC(C)C)Cc2ccco2)c(C)n(C)c1C [PCM-0120203] | 8.21 | > 9.9 | 8.53 | 3.79
Cc1ccc(-c2cn3cccc(C)c3n2)cc1S(=O)(=O)N1CCN(C)CC1 [YB-540] | 0.425 |  |  | > 9.99

SMILES | IC50 (QR2 [1]) [µM] | IC50 (QR1 (NQO1) [2]) [µM] | IC50 (QR2 [3]) [µM] | IC50 (QR1 (NQO1) [4]) [µM]
Cc1ccc(-c2nnc(-c3ccccc3)o2)cc1S(=O)(=O)NCc1cccnc1 [PCM-0213813] | 6.49 | > 9.99 | 1.17 | > 9.99
COc1cc(Cl)c(NS(=O)(=O)c2ccc(-c3cc(C)no3)cc2OC)c(OC)c1 [PCM-0131156] | 3.82 | > 9.99 | 2.73 | > 9.9
Cc1c(C)c(C)c(S(=O)(=O)N2CCNC(=O)C2)c(C)c1C [PCM-0083647] | 7.04 |  |  | > 9.8
CCN(CC)S(=O)(=O)c1cc(-c2nnc(-c3ccccc3)o2)ccc1C [PCM-0127546] | 4.82 | > 9.99 | 3.12 | > 9.9
Cc1ccc2nc(-c3cccc(S(=O)(=O)N4CCOCC4)c3)cn2c1 [PCM-0124615] | 3.25 | > 9.99 | 1.65 | > 9.9
Cc1nc(-c2ccc(C)c(S(=O)(=O)N3CCN(C(=O)c4ccco4)CC3)c2)cs1 [PCM-0197066] | 4.65 | > 9.99 | 1.28 | > 9.99
Cc1ccn2cc(-c3cccc(S(=O)(=O)NCc4cccnc4)c3)nc2c1 [PCM-0213812] | 9.62 | 8.6 | 0.75 | > 9.99
Cc1ccc(-c2nnc(-c3ccccc3)o2)cc1S(=O)(=O)N1CCCC1 [PCM-0213805] | 1.48 | > 9.99 | 0.25 | > 9.99
Cc1cccn2cc(-c3cccc(S(=O)(=O)NCCCN4CCCC4=O)c3)nc12 [PCM-0213794] | 0.25 | > 9.99 | 0.11 | > 9.99
Cc1nc(-c2ccc(C)c(S(=O)(=O)N(C)C)c2)cs1 [PCM-0213803] | 2.8 | > 9.99 | 0.1 | > 9.99
CC(=O)N1CCOc2ccc(S(=O)(=O)N3CCCc4ccccc43)cc21 [PCM-0119249] | > 9.9 | 3.48 | > 9.99 | 4.7
Cc1ccn2cc(-c3ccc(C)c(S(=O)(=O)N4CCN(C(=O)c5ccco5)CC4)c3)nc2c1 [PCM-0213790] | 0.27 | 7.15 | 0.11 | > 9.99
Cc1cccn2cc(-c3cccc(S(=O)(=O)Nc4ccc(Cl)cc4)c3)nc12 [PCM-0213788] | 3.04 | > 9.99 | 0.05 | > 9.99
Cc1ccc(-c2nnc(-c3ccccc3)o2)cc1S(=O)(=O)N(C)C [PCM-0127506] | 2.2 | > 9.99 | 1.62 | > 9.99
Cc1ccn2cc(-c3cccc(S(=O)(=O)NCCCN4CCCC4=O)c3)nc2c1 [PCM-0213817] | 0.7 | 3.44 | 0.32 | 5.28
Cc1c(-c2nnc(C3CCC3)o2)c(S(=O)(=O)NCc2ccc(Cl)cc2)c(C)n1C [PCM-0128885] | > 9.9 | > 9.99 | > 9.99 | > 9.9
Cc1ccn2cc(-c3cccc(S(=O)(=O)N(C)C)c3)nc2c1 [PCM-0213801] |  | > 9.99 |  | > 9.99
CN(C)S(=O)(=O)c1cccc2ccccc12 [PCM-0071569] | > 9.8 |  |  | > 9.8
COCCNC(=O)N1CCN(S(=O)(=O)c2c(C)c(C)c(C)c(C)c2C)CC1 [PCM-0072788] | > 9.8 |  |  | > 9.8
